# Measurements as given in patent publication US20160015064A1, “COMPOUNDS, COMPOSITIONS, AND METHODS FOR MODULATING SWEET TASTE” (CHROMOCELL CORPORATION, priority 2013, published 2016).
# Assays:
# [1] = system: perception of the sweet taste of an aqueous solution of sweetener; assay: Two-alternative forced choice sip and spit method (2AFC); type: in vivo, humans
# Protocol: The effect of the test compounds on the perception of the sweet taste of an aqueous solution of sweetener in humans was evaluated using a two-alternative forced choice “sip and spit” method (2AFC).
# (§1) The aqueous sweetener solutions were prepared by adding, fructose, sucrose or glucose (by weight), to water to achieve the desired concentration.
# Compounds were first prepared as a 500-fold concentrated stock solution in 100% ethanol. These concentrated stocks were then added to the aqueous sweetener solutions to result in a final ethanol concentration of 0.2%. The control (positive and negative) samples were also normalized to 0.2% ethanol. This level of ethanol was not seen to contribute any perceived sweetness.
# The 2AFC test used for compound evaluation was a blind and randomized test where taste panelists (n=15) evaluate a pair of sweetener solutions at a time—one sample contains aqueous sweetener solution plus compound (i.e. test) while the other contains aqueous sweetener solution at higher concentration without compound (i.e. positive control). Each test sample was compared against a positive control. For example, if the test sample contained 1× sweetener concentration with compound (e.g. 5% sucrose with compound), the positive control sample contained a 1.1× sweetener concentration (e.g. 5.5% sucrose without compound).
# Panelists were instructed not to eat or drink (except water) for at least 1 h before the test. During the test, panelists were instructed to sip each sample, swirl it around their mouth and then expectorate. After tasting each sample in the pair, panelists were instructed to record the sample that is “sweeter” in taste. Panelists cleansed their palates by rinsing with water, eating a cracker and waiting for an interval of about 5 minutes. Each pair was tasted twice. All samples were tasted at ambient temperatures. Data were analyzed using binomial probabilities.
# Approximate levels of sweetness enhancement in column 5 of Table 2 were calculated as follows:
# Approximate levels of sweetness enhancement=Sweetener concentration of positive control surpassed by the test sample, divided by sweetener concentration for compound-containing sample (e.g. 1.15×=5.75% sucrose/5% sucrose).
# [2] = system: perception of the sweet taste in an aqueous environment; assay: Trained descriptive analysis (DA) panel, sweet attribute; type: in vivo, humans; settings: for Compound effects beyond the additive effect of inherent sweetness: 4% fructose and 8% sucrose
# Protocol: The effect of the test compounds on the perception of the sweet taste in an aqueous environment, in the absence or presence of carbohydrate sweeteners, was evaluated using a descriptive analysis methodology with a group of trained panelists, as follows.
# Candidate panelists were recruited, with prescreening and personal interviews, and were assessed for their ability to detect, recognize and differentiate basic taste attributes or mixtures thereof as part of a standardized acuity test. These candidate panelists were also assessed for their innate ability to identify flavors, and to rank on intensity scales. Other senses such as smell and vision were also included as part of the assessment. Candidates also were screened for their ability to use the language to describe and articulate ideas.
# Selected candidates proceeded to training as a group in three phases: (1) Lexicon development, (2) Concept alignment, and (3) Scaling descriptors. During lexicon development, panelists evaluated products appropriate for use in the study to generate and align on terms describing the flavor, taste, aromatic, trigeminal, and temporal attributes. During concept alignment, the panel evaluated the products mentioned above to clarify and confirm the attributes that were generated during lexicon development using reference standards that appropriately define each attribute; these are either physical references (e.g. sucrose solutions) or verbal descriptions (e.g. overall flavor). Product terms and concepts were validated during this portion of the study.
# In the last phase, scaling descriptors, the panel participated in a series of exercises focused on ordering and ranking samples according to relative attribute intensity, measuring attribute intensity using a defined length of line scale. Whenever possible, different levels or concentration of references were used as anchors to facilitate use of the scale. Panelists were provided with blinded references at this stage to evaluate their understanding and perception of the scale.
# The panel used in this example was trained to reference sweet attributes in an absolute manner, such that a particular concentration of sweetener is always measured by the panelists at the same point using a 15 cm line scale where each cm represents a 1% increase in sucrose to cover the range of 0% to 15% sucrose. For the rest of the attributes, the panel was trained using a hybrid approach between descriptive analysis methods (e.g. quantitative descriptive analysis, the sensory spectrum, etc.) well-known to those skilled in the art.
# The trained panel was then used for a descriptive analysis assessment for Compounds 1, 2 and 3 in aqueous solutions at pH 3 and pH 7. Each of the three compounds was tested at 35 ppm in sucrose and fructose sweeteners. In addition, Compounds 1, 2 and 3 were also examined in water at pH 3 and pH 7 to assess for any inherent sweetness.
# The aqueous sweetener solutions were prepared by adding, fructose or sucrose (by weight), to water to achieve the desired concentration. Aqueous sucrose solutions at pH 3 were buffered using a final concentration of 0.096% Citric Acid plus 0.036% Sodium Citrate while aqueous fructose solutions at pH 3 were buffered using a final concentration of 0.06% Citric Acid and 0.0225% Sodium Citrate.
# Compounds were first prepared as a […] concentrated stock solution in 100% ethanol. These concentrated stocks were then added to the aqueous sweetener solutions to result in a final ethanol concentration of 0.2%. In addition to compounds, a solubilizing agent at a final concentration of 0.02% was added to the aqueous sweetener solutions. Control samples were also balanced with 0.2% ethanol and in certain cases 0.02% solubilizing agent.
# Both control (aqueous sweetener solutions without compound) and variant (aqueous sweetener solutions with compound) samples were blinded and randomized (by sweetener and pH blocks). […]
# [3] = system: perception of the sweet taste of an aqueous solution of sweetener; assay: Ranking sip and spit test of sweetness perception (R index); type: in vivo, humans; settings: compound 10 ppm, vs negative control
# Protocol: The effect of the test compounds on the perception of the sweet taste of an aqueous solution of sweetener in humans was evaluated using a ranking “sip and spit” method.
# as §1
# Compounds were first prepared as a 500-fold concentrated stock solution in 100% ethanol. These concentrated stocks were then added to the aqueous sweetener solutions to result in a final ethanol concentration of 0.2%. The control (positive and negative) samples were also normalized to 0.2% ethanol.
# In the ranking test used for compound evaluation, taste panelists (n=15), rank samples in increasing order of sweetness. One set, comprising of 6 samples, was presented to each panelists at a given time and are asked to rank them in order of increasing sweetness.
# Panelists were instructed not to eat or drink (except water) for at least 1 h before the test. During the test, panelists were instructed to sip each sample, swirl it around their mouth and then expectorate. After tasting each set, panelists were instructed to rank the 6 samples within the set from least sweet to most sweet. Where rank 1—is lowest in sweetness and rank 6—is highest in sweetness. Panelists cleansed their palates by rinsing with water, eating a cracker and waiting for an interval of 10 minutes. All samples were tasted at ambient temperatures. Each sample was tasted twice.
# R index analysis was utilized to determine the degree of difference between a test and control sample. It indicates the level of discrimination between two samples. […] A positive control sample was used to assess the ability of the panelists to accurately discriminate sweetness perception differences from the negative control.
# [4] = system: flavor; settings: DuBois, et al., J. Med. Chem., 1981; cited from earlier work
# [5] = 4% fructose, pH 3, 35 ppm compound plus solubilizing agent
# [6] = 4% fructose, pH 7, 35 ppm compound plus solubilizing agent
# [7] = 8% sucrose, pH 3, 35 ppm compound plus solubilizing agent
# [8] = 8% sucrose, pH 7, 35 ppm compound plus solubilizing agent
compound,measurement,setting,value
"COc1ccc(C2CC(=O)c3c(O)cccc3O2)cc1O (racemic) [Compound 1, 5-hydroxy-2-(3-hydroxy-4-methoxyphenyl)chroman-4-one]",Fold increase in perceived sweetness,"[1]; test sample 4% fructose, compound 25 ppm with positive 2AFC",>1.20X
same,Fold increase in perceived sweetness,"[1]; test sample 5% sucrose, compound 15 ppm with positive 2AFC, positive control surpassed / test sweetener concentration",>1.15X
same,Fold increase in perceived sweetness,"[1]; test sample 6.5% glucose, compound 10, 25 ppm with positive 2AFC",>1.15X
same,DA Panel Average Sweetness Intensity Score (on 15 cm scale),[2]; [5],6.94
same,Fold enhancement of sweetness perception as compared to control sweetener solution,[2]; [5],1.38X
same,DA Panel Average Sweetness Intensity Score (on 15 cm scale),[2]; [6],7.80
same,Fold enhancement of sweetness perception as compared to control sweetener solution,[2]; [6],1.78X
same,DA Panel Average Sweetness Intensity Score (on 15 cm scale),[2]; [7],9.31
same,Fold enhancement of sweetness perception as compared to control sweetener solution,[2]; [7],1.29X
same,DA Panel Average Sweetness Intensity Score (on 15 cm scale),[2]; [8],9.97
same,Fold enhancement of sweetness perception as compared to control sweetener solution,[2]; [8],1.33X
same,DA Panel Average Sweetness Intensity Score (on 15 cm scale),"[2]; citric acid-citrate solution pH 3, no sweetener, 35 ppm compound plus solubilizing agent",1.14
same,Perceived inherent sweetness compared to solubilizing agent alone,"[2]; citric acid-citrate solution pH 3, 35 ppm compound plus solubilizing agent",do not show further significant increase in perceived inherent sweetness
same,Compound effects beyond the additive effect of inherent sweetness,"[2]; pH 3, 35 ppm",super-additive effects
same,Perceived sweetness vs control sweetener solutions (FIG. 2),"[2]; pH 3, fructose and sucrose, 35 ppm, ** p<0.01",significant increase in perceived sweetness
same,Compound effects beyond the additive effect of inherent sweetness,"[2]; pH 7, 35 ppm",super-additive effects
same,Perceived sweetness vs control sweetener solutions (FIG. 1),"[2]; pH 7, fructose and sucrose, 35 ppm, ** p<0.01",significant increase in perceived sweetness
same,DA Panel Average Sweetness Intensity Score (on 15 cm scale),"[2]; water pH 7, no sweetener, 35 ppm compound plus solubilizing agent, 1 cm = 1% sucrose",1.57
same,Perceived sweetness compared to solubilizing agent alone (inherent sweetness),"[2]; water pH 7, 35 ppm compound plus solubilizing agent",further increase in perceived sweetness
same,R Index Score,[3]; 4% fructose test sample,90
same,R Index Score,"[3]; 5% sucrose test sample, significant at R index ≧60",93
same,Reported flavor (bitter),[4],bitter flavor in a significant portion of tasters
same,Reported flavor (sweet),[4],sweet flavor
